# According to ChEMBL document CHEMBL1138873, “A novel antiproliferative agent, phenylpyridineylbutenol, isolated from Streptomyces sp” (Bioorg Med Chem Lett, 2006):
# Columns and labels:
# Assay type in all cases: functional, cell-based
# [1] = test system: HepG2; test: Antiproliferative activity against human HepG2 by MTT assay
# [2] = test system: HeLa; test: Antiproliferative activity against human HeLa by MTT assay
# [3] = test system: A549; test: Antiproliferative activity against human A549 by MTT assay
# [4] = test system: AGS; test: Antiproliferative activity against human AGS by MTT assay
smiles,measurement,setting,value
OC/C=C(\Cc1ccccc1)c1ccccn1,IC50,[1],1600 µM
same,IC50,[2],1380 µM
same,IC50,[3],1130 µM
same,IC50,[4],1980 µM
